Laboratory results taken from patent publication US10307413B2, “Tetrahydro- and dihydro-isoquinoline PRMT5 inhibitors and uses thereof” (Epizyme, Inc., priority 2013, dated 2019).

Tests used:
[1] = system: Z-138 cell line; assay: Z-138 Proliferation Assay (Cell Titer Glo, 5 days); assay type: cell-based; details: Homo sapiens, 120 h; Z-138 cells, 5 days; read-out: Proliferation EC50
Procedure, shortened: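 Viability via CellTiter-Glo luminescence (ATP) after 5-day incubation at 37 °C, 5% CO2. Compounds tested in triplicate, nine 3-fold steps, highest final concentration 20 μM in 0.2% DMSO; 50% inhibitory concentration by 4-parameter fit of normalized curves.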

[2] = system: symmetric di-methyl arginine in Z-138 cells; assay: Z-138 Methylation Assay (In Cell Western for symmetric di-methyl arginine and DNA content); assay type: cell-based; details: Homo sapiens, read-out: ICW EC50
Procedure, shortened: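 In-cell western: symmetric di-methyl arginine signal ratioed to DRAQ5 DNA content after 96 h compound exposure of Z-138 cells seeded at 50,000 cells/mL.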

## CC(C)N1CCC(Oc2ccc(C(=O)NCC(O)CN3CCc4ccccc4C3)cc2)C1 (centres unmarked) [Compound 196]
[1]
  EC50: 1 to 10 µM
[2]
  EC50: < 100 nM

## CN1CCCC1c1cccc(C(=O)NCC(O)CN2CCc3ccccc3C2)c1 (centres unmarked) [Compound 34, N-(3-(3,4-dihydroisoquinolin-2(1H)-yl)-2-hydroxypropyl)-3-(1-methylpyrrolidin-2-yl) benzamide]
[1]
  EC50: 10 to 50 µM
[2]
  EC50: 101 to 1000 nM

## C[C@H]1CC(Nc2cccc(C(=O)NC[C@H](O)CN3CCc4ccccc4C3)c2)CCO1 (some centres unmarked) [Compound 167]
[1]
  EC50: 0.101 to 1 µM
[2]
  EC50: < 100 nM

## Cc1ccc2cc(C(=O)NC[C@@H](O)CN3CCc4ccccc4C3)ccc2n1 [Compound 219, (R)—N-(3-(3,4-dihydroisoquinolin-2(1H)-yl)-2-hydroxypropyl)-2-methylquinoline-6-carboxamide]
[1]
  EC50: 10 to 50 µM
[2]
  EC50: 101 to 1000 nM

## CN1CCC(Oc2ccc(C(=O)NCC(O)CN3CCc4ccccc4C3)cc2)C1 (centres unmarked) [Compound 177]
[1]
  EC50: 1 to 10 µM
[2]
  EC50: < 100 nM

## CCN1CCN(Cc2cccc(C(=O)NCC(O)CN3CCc4ccccc4C3)c2)CC1 (centres unmarked) [Compound 90]
[1]
  EC50: 10 to 50 µM
[2]
  EC50: 101 to 1000 nM

## O=C(NCC(O)CN1CCc2ccccc2C1)c1cccc(OC2CCN(CC(F)(F)F)C2)c1 (centres unmarked) [Compound 137]
[1]
  EC50: 1 to 10 µM
[2]
  EC50: < 100 nM

## CN1CC(Nc2cc(C(=O)NC[C@H](O)CN3CCc4ccccc4C3)ncn2)C1 [Compound 281]
[1]
  EC50: 10 to 50 µM
[2]
  EC50: 101 to 1000 nM

## O=C(NCC(O)CN1CCc2ccccc2C1)c1cccc(C2CCNC2)c1 (centres unmarked) [Compound 37]
[1]
  EC50: > 20 µM
[2]
  EC50: 101 to 1000 nM

## CN1CCN(c2cccc(C(=O)NCC(O)CN3CCc4ccccc4C3)c2)CC1 (centres unmarked) [Compound 36]
[1]
  EC50: 10 to 50 µM
[2]
  EC50: 101 to 1000 nM

## CC(C)N1CCC(Oc2ccc(C(=O)NCC(O)CN3CCc4ccccc4C3)cc2)CC1 (centres unmarked) [Compound 106]
[1]
  EC50: 0.101 to 1 µM
[2]
  EC50: < 100 nM

## O=C(NCC(O)CN1CCc2ccccc2C1)c1cccc(-c2ccncc2)c1 (centres unmarked) [Compound 9, N-(3-(3,4-dihydroisoquinolin-2(1H)-yl)-2-hydroxypropyl)-3-(pyridin-4-yl)benzamide]
[1]
  EC50: 1 to 10 µM
[2]
  EC50: < 100 nM

## O=C(NC[C@H](O)CN1CCc2ccccc2C1)c1ccnc(OC2CCN(CC(F)(F)F)CC2)c1 [Compound 203]
[1]
  EC50: 0.101 to 1 µM
[2]
  EC50: < 100 nM

## Cc1cc2ncc(C(=O)NC[C@H](O)CN3CCc4ccccc4C3)c(C)n2n1 [Compound 275]
[1]
  EC50: 1 to 10 µM
[2]
  EC50: 101 to 1000 nM

## CCOC(=O)CN1CCN(Cc2cccc(C(=O)NCC(O)CN3CCc4ccccc4C3)c2)CC1 (centres unmarked) [Compound 165]
[1]
  EC50: 1 to 10 µM
[2]
  EC50: 101 to 1000 nM

## O=C(NC[C@H](O)CN1CCc2ccccc2C1)c1ccnc(NC2CCN(CC(F)(F)F)CC2)c1 [Compound 224]
[1]
  EC50: 0.101 to 1 µM
[2]
  EC50: < 100 nM

## CN1CCCC(CNc2cc(C(=O)NC[C@H](O)CN3CCc4ccccc4C3)ccn2)C1 (some centres unmarked) [Compound 264]
[1]
  EC50: 1 to 10 µM
[2]
  EC50: < 100 nM

## CC(=O)N1CC(Nc2cc(C(=O)NC[C@H](O)CN3CCc4ccccc4C3)ncn2)C1 [Compound 284, (S)-6-((1-acetylazetidin-3-yl)amino)-N-(3-(3,4-dihydroisoquinolin-2(1H)-yl)-2-hydroxypropyl)pyrimidine-4-carboxamide]
[1]
  EC50: < 0.1 µM
[2]
  EC50: < 100 nM

## CC(=O)N1CCC(Oc2ccc(C(=O)NCC(O)CN3CCc4ccccc4C3)cc2)C1 (centres unmarked) [Compound 197]
[1]
  EC50: 0.101 to 1 µM
[2]
  EC50: < 100 nM

## O=C(NC[C@H](O)CN1CCc2ccccc2C1)c1ccnc(OC2CCOCC2)c1 [Compound 323]
[1]
  EC50: 0.101 to 1 µM
[2]
  EC50: < 100 nM

## O=C(NC[C@H](O)CN1CCc2ccccc2C1)c1ccc2c(c1)CCO2 [Compound 243]
[1]
  EC50: 1 to 10 µM
[2]
  EC50: 101 to 1000 nM

## O=C(NC[C@H](O)CN1CCc2ccccc2C1)c1ccnc(NCC2CCCCN2)c1 (some centres unmarked) [Compound 237]
[1]
  EC50: 1 to 10 µM
[2]
  EC50: < 100 nM

## O=C(NCC(O)CN1CCc2ccccc2C1)c1ccc2ncccc2c1 (centres unmarked) [Compound 68]
[1]
  EC50: 1 to 10 µM
[2]
  EC50: < 100 nM

## O=C(NCC(O)CN1CCc2ccccc2C1)c1cccc(N2CCNCC2)c1 (centres unmarked) [Compound 35, N-(3-(3,4-dihydroisoquinolin-2(1H)-yl)-2-hydroxypropyl)-3-(piperazin-1-yl)benzamide]
[1]
  EC50: 10 to 50 µM
[2]
  EC50: 101 to 1000 nM

## O=C(NCC(O)CN1CCc2ccccc2C1)c1cccc(CC2CCOCC2)c1 (centres unmarked) [Compound 59]
[1]
  EC50: 0.101 to 1 µM
[2]
  EC50: < 100 nM

## O=C(NCC(O)CN1CCc2ccccc2C1)c1cccc(OCCN2CCOCC2)c1 (centres unmarked) [Compound 133]
[1]
  EC50: 1 to 10 µM
[2]
  EC50: < 100 nM

## Cn1ccc(C(=O)NCC(O)CN2CCc3ccccc3C2)n1 (centres unmarked) [Compound 149]
[1]
  EC50: > 20 µM
[2]
  EC50: 1000 to 10000 nM

## CS(=O)(=O)N1CCC(Nc2cccc(C(=O)NCC(O)CN3CCc4ccccc4C3)c2)C1 (centres unmarked) [Compound 122]
[1]
  EC50: 0.101 to 1 µM
[2]
  EC50: < 100 nM

## O=C(NCC(O)CN1CCc2ccccc2C1)c1ncc[nH]1 (centres unmarked) [Compound 170]
[1]
  EC50: > 20 µM
[2]
  EC50: 101 to 1000 nM

## COc1cc(CN2CCN(C)CC2)cc(C(=O)NCC(O)CN2CCc3ccccc3C2)c1 (centres unmarked) [Compound 160]
[1]
  EC50: 10 to 50 µM
[2]
  EC50: 101 to 1000 nM

## Cn1nc(NC2CCOCC2)cc1C(=O)NCC(O)CN1CCc2ccccc2C1 (centres unmarked) [Compound 311]
[1]
  EC50: < 0.1 µM
[2]
  EC50: < 100 nM

## CNC(=O)CN1CCN(Cc2cccc(C(=O)NCC(O)CN3CCc4ccccc4C3)c2)CC1 (centres unmarked) [Compound 173]
[1]
  EC50: 1 to 10 µM
[2]
  EC50: < 100 nM

## NC(=O)CNCCOc1cccc(C(=O)NCC(O)CN2CCc3ccccc3C2)c1 (centres unmarked) [Compound 222]
[1]
  EC50: > 20 µM
[2]
  EC50: 101 to 1000 nM

## O=C(NCC(O)CN1CCc2ccccc2C1)c1cccc(NC2CCNCC2)c1 (centres unmarked) [Compound 94]
[1]
  EC50: 10 to 50 µM
[2]
  EC50: 101 to 1000 nM

## CN(CCNc1cc(C(=O)NC[C@H](O)CN2CCc3ccccc3C2)ccn1)S(C)(=O)=O [Compound 262]
[1]
  EC50: 0.101 to 1 µM
[2]
  EC50: < 100 nM

## CC(=O)N1CCC(Nc2cccc(C(=O)NCC(O)CN3CCc4ccccc4C3)c2)C1 (centres unmarked) [Compound 121]
[1]
  EC50: 0.101 to 1 µM
[2]
  EC50: < 100 nM

## O=C(NCC(O)CN1CCc2ccccc2C1)c1ccc(NC2CCOC2)cc1 (centres unmarked) [Compound 129]
[1]
  EC50: 1 to 10 µM
[2]
  EC50: < 100 nM

## O=C(NC[C@H](O)CN1CCc2ccccc2C1)c1ccc2c(c1O)NCCC2 [Compound 328]
[1]
  EC50: > 20 µM
[2]
  EC50: > 1000 nM

## O=C(NCC(O)CN1CCc2ccccc2C1)c1cccc(-c2cccnc2)c1 (centres unmarked) [Compound 8, N-(3-(3,4-dihydroisoquinolin-2(1H)-yl)-2-hydroxypropyl)-3-(pyridin-3-yl)benzamide]
[1]
  EC50: 1 to 10 µM
[2]
  EC50: < 100 nM

## O=C(NC[C@H](O)CN1CCc2ccccc2C1)c1ccnc(NC2CCNC2)c1 (some centres unmarked) [Compound 201]
[1]
  EC50: 1 to 10 µM
[2]
  EC50: 101 to 1000 nM

## CS(=O)(=O)N1CCC(Nc2cccc(C(=O)NCC(O)CN3CCc4ccccc4C3)c2)CC1 (centres unmarked) [Compound 125]
[1]
  EC50: 0.101 to 1 µM
[2]
  EC50: < 100 nM

## CN(CC(N)=O)Cc1cccc(C(=O)NCC(O)CN2CCc3ccccc3C2)c1 (centres unmarked) [Compound 195]
[1]
  EC50: 10 to 50 µM
[2]
  EC50: 101 to 1000 nM

## CN(CC(O)CN1CCc2ccccc2C1)C(=O)c1cccc(NC2CCOCC2)c1 (centres unmarked) [Compound 71]
[1]
  EC50: 1 to 10 µM
[2]
  EC50: 101 to 1000 nM

## O=C(O)CN1CCN(Cc2cccc(C(=O)NCC(O)CN3CCc4ccccc4C3)c2)CC1 (centres unmarked) [Compound 157]
[1]
  EC50: > 20 µM
[2]
  EC50: 1000 to 10000 nM

## CN(c1cc(C(=O)NC[C@H](O)CN2CCc3ccccc3C2)ncn1)C1CCOCC1 [Compound 261]
[1]
  EC50: 1 to 10 µM
[2]
  EC50: < 100 nM

## O=C(NCC(O)CN1CCc2ccccc2C1)c1cccc(NC2CCNC2)c1 (centres unmarked) [Compound 93]
[1]
  EC50: > 20 µM
[2]
  EC50: 1000 to 10000 nM

## O=C(NC[C@@H](O)CN1CCc2ccccc2C1)c1cccc(NC2CCOC2)c1 (some centres unmarked) [Compound 81]
[1]
  EC50: 1 to 10 µM
[2]
  EC50: 101 to 1000 nM

## CN(C[C@H](O)CN1CCc2ccccc2C1)C(=O)c1cc(NC2CCOCC2)ncn1 [Compound 232]
[1]
  EC50: 1 to 10 µM
[2]
  EC50: 101 to 1000 nM

## CC(=O)N1CCC(Nc2cccc(C(=O)NCC(O)CN3CCc4ccccc4C3)c2)CC1 (centres unmarked) [Compound 124]
[1]
  EC50: < 0.1 µM
[2]
  EC50: < 100 nM

## CS(=O)(=O)Nc1cccc(C(=O)NCC(O)CN2CCc3ccccc3C2)c1 (centres unmarked) [Compound 24]
[1]
  EC50: 1 to 10 µM
[2]
  EC50: 101 to 1000 nM

## O=C(NCC(O)CN1CCc2ccccc2C1)c1ccc(CN2CCNCC2)cc1 (centres unmarked) [Compound 143]
[1]
  EC50: 1 to 10 µM
[2]
  EC50: < 100 nM

## CS(=O)(=O)N1CCC(Oc2cncc(C(=O)NC[C@H](O)CN3CCc4ccccc4C3)c2)CC1 [Compound 290]
[1]
  EC50: 10 to 50 µM
[2]
  EC50: 101 to 1000 nM
